Laboratory results: PMC2574882 (The Biochemical journal, 2008)
“Also recorded” adds a separate entry of the source.

Tests used:
[1] = Absorption titration with ferric citrate; assay type: binding; conditions: by relative association constants
[2] = cited from earlier work
[3] = biological target: T1, human CCK1 receptor (Homo sapiens, UniProt P32238); assay: Receptor binding assay, CCK1 receptor; conditions: 1 μM desferrioxamine, COS-7 cells; triplicates, ANOVA
T1 sequence (P32238 1-428): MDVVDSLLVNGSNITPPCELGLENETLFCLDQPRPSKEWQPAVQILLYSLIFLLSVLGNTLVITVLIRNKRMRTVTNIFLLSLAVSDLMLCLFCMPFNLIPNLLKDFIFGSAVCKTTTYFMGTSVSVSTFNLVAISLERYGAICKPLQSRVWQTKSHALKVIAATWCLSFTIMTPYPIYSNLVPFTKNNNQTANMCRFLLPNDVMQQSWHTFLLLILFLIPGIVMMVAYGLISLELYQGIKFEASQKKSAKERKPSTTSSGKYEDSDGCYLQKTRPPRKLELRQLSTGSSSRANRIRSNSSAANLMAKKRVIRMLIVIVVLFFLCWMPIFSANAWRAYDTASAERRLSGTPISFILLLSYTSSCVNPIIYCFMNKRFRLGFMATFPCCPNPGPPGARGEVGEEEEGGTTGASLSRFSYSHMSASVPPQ

[4] = biological target: T2, human CCK2 receptor (Homo sapiens, UniProt P32239); assay: Receptor binding assay, CCK2 receptor; conditions: 1 μM desferrioxamine, COS-7 cells; triplicates, ANOVA
T2 sequence (P32239 1-447): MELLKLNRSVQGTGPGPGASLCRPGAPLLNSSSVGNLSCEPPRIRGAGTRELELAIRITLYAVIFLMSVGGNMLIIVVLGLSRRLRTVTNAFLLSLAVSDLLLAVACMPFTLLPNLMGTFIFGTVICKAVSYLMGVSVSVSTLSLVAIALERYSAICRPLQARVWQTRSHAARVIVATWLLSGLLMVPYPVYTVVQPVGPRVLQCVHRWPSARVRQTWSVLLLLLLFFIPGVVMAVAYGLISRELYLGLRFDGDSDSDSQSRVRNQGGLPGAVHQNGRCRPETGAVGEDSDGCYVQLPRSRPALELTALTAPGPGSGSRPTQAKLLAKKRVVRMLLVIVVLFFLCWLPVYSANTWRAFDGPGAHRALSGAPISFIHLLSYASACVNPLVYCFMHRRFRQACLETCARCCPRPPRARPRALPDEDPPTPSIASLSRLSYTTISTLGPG

[5] = test system: cell proliferation and migration; conditions: cited from earlier work
[6] = NMR titration with ferric ions; assay type: binding; conditions: pH 4.0, 298 K, FeCl3, precipitate in the NMR tube
[7] = Solubility for NMR; assay type: physicochemical; conditions: 80% H2O/10% ^2H2O/10% 2H6-DMSO
[8] = Absorption spectroscopy titration with ferric chloride; conditions: 40 μM peptide, 298 K

In the case of `O=C(O)CC(O)(CC(=O)O)C(=O)O` [citrate], the “relative Fe^3+ binding (in words)” value [1] is reported as “binds Fe^3+ ions more tightly than any of the CCK peptides”.
In the case of `N[C@@H](Cc1ccc(OP(=O)(O)O)cc1)C(=O)O` [phosphotyrosine], the “pKa of the phosphoryl group” value [2] is listed as 5.9.
For `CC(=O)N(O)CCCCCNC(=O)CCC(=O)N(O)CCCCCNC(=O)CCC(=O)N(O)CCCCCN` [desferrioxamine], the “effect on binding of labelled CCK8SO4, CCK1 receptor (in words)” value [3] is given as “no significant effect; also recorded: inability”, the “effect on binding of labelled CCK8SO4, CCK2 receptor (in words)” value [4] is given as “no significant effect; also recorded: inability” and the “effect on biological activity of glycine-extended gastrin (in words)” value ([5]; stimulation of cell proliferation and migration) is given as “completely blocked the biological activity of glycine-extended gastrin”.
With `CSCC[C@H](NC(=O)[C@H](Cc1ccc(O)cc1)NC(=O)[C@@H](N)CC(=O)O)C(=O)NCC(=O)N[C@@H](Cc1c[nH]c2ccccc12)C(=O)N[C@@H](CCSC)C(=O)N[C@@H](CC(=O)O)C(=O)N[C@@H](Cc1ccccc1)C(N)=O` [CCK8] the “solubility of Fe^3+-peptide complex (in words)” value [6] was “formation of an insoluble Fe^3+-peptide complex” and the “solubility (in words)” value [7] was “required the presence of ^2H6-DMSO (80% H2O/10% ^2H2O/10% 2H6-DMSO) to achieve solubility at 0.23 mM”.
In the case of “ZGPWLEEEEEAYGWMDFamide [amidated gastrin]”, the “requirement of ferric ions for biological activity (in words)” value [5] is listed as “ferric ions were not required for the biological activity”.
For CCK4, the “absorbance change on addition of ferric chloride, pH 4.0 (in words)” value ([8]; pH 4.0, 275 nm) was “no change in the absorbance; also recorded: did not cause any change in absorption” and the “absorbance change / binding on addition of ferric chloride, pH 6.5 (in words)” value ([8]; pH 6.5, 275 nm) was “No evidence of binding of ferric ions; also recorded: no increase in absorbance was seen”.
